According to patent US20240091358A1, “[…] REGULATION” (Senti Biosciences, Inc., priority 2021, published 2024):

How the values were obtained:
[1] = tested on: Hep3B cells; assay: Nanoluciferase activity (Promega Nanoglo) in Hep3B cells transduced with AAV2/AAV8 nanoluciferase-degron constructs, with or without IMiD (Example 5); assay type: cell-based; conditions: for luciferase activity relative to cells not treated / minimal effective dose in vitro: Hep3B cells transduced with AAV2 construct; for luciferase activity relative to cells not treated: 1-0.01 μM drug, all concentrations tested; for minimal effective dose in vitro: concentration that may be approaching the minimal effective dose; for Fold change relative to no drug: decrease in nanoluciferase activity, Hep3B cells transduced with AAV2 nanoluciferase/degron construct
Experimental: AAV2 and AAV8 viral vector constructs were generated that expressed nanoluciferase as a chimeric protein fused to a C-terminal degron using an A(EAAK)3A linker (SEQ ID NO: 193). Constructs were generated using packaging vectors with either AAV2 or AAV8 capsid protein.
Luciferase activity was assessed following the general protocol below: • Day 0: Hep3b cells were plated at 50,000 cells per well in a 96 well plate • Day 1: 1e6 vg/cell AAV2 or 3e6 vg/cell AAV8 was added to cells in presence or absence of 1 μM Lenalidomide (or 1 μM-0.01 μM Lenalidomide or Pomalidomide) • Day 3: Cells were lysed and luciferase activity was measured with Promega Nanoglo kit

[2] = tested on: donor-derived T cells; assay: hIL-10 secretion from donor T cells by Luminex assay, normalized to hIL-12 (Example 4); assay type: cell-based; conditions: for % 1 uM Len of no drug (IL10/IL12 ratio) / Mean IL10/IL12 ratio (1 uM Len) / Mean IL10/IL12 ratio (no drug): donor T cell supernatant; for % 1 uM Len of no drug (IL10/IL12 ratio): 1 uM lenalidomide relative to no drug; for Mean IL10/IL12 ratio (1 uM Len): 1 uM lenalidomide; for Mean IL10/IL12 ratio (1 uM Len) / Mean IL10/IL12 ratio (no drug): hIL-10 normalized to hIL-12
Experimental: The viral vectors also expressed human IL-12 (hIL-12) from a separate promoter as a normalization control for cell number, viability, and transduction efficiency.
Cytokine secretion was assessed following the general protocol below: • Day 0: Donor T cells (enriched as previously described above) were thawed and activated with CD3/CD28 Dynabeads • Day 1: T cells were transduced with viral constructs (100 k GoStix values per 1e6 cells) • Day 2: Media was changed • Day 4: Cells were passaged • Day 7: Cells were spun down, washed 3× with media, then resuspended in media+/−1 μM Lenalidomide • Day 9: Supernatants were harvested and were evaluated for hIL10 and hIL12 concentration by Luminex assay

`Nc1cccc2c1CN(C1CCC(=O)NC1=O)C2=O` (stereo not drawn) [lenalidomide] was tested, and the “luciferase activity relative to cells not treated” value [1] was “significant decreases in luciferase activity”, the “minimal effective dose in vitro” value [1] was ~0.01 µM and the “Fold change relative to no drug” value ([1]; drug dose 0.01 uM) was 6 fold. The “Fold change relative to no drug” value ([1]; drug dose 0.05 uM) was 18 fold, the “Fold change relative to no drug” value ([1]; drug dose 0.1 uM) was 25 fold and the “Fold change relative to no drug” value ([1]; drug dose 0.5 uM) was 35 fold. For the same molecule, the “Fold change relative to no drug” value ([1]; drug dose 1 uM) was 60 fold.

For `Nc1cccc2c1C(=O)N(C1CCC(=O)NC1=O)C2=O` (stereo not drawn) [pomalidomide], the “luciferase activity relative to cells not treated” value [1] was “significant decreases in luciferase activity”, the “minimal effective dose in vitro” value [1] was ~0.01 µM and the “Fold change relative to no drug” value ([1]; drug dose 0.01 uM) was 4 fold. For the same molecule, the “Fold change relative to no drug” value ([1]; drug dose 0.05 uM) was 12 fold, the “Fold change relative to no drug” value ([1]; drug dose 0.1 uM) was 19 fold and the “Fold change relative to no drug” value ([1]; drug dose 0.5 uM) was 18 fold. The “Fold change relative to no drug” value ([1]; drug dose 1 uM) was 19 fold.

B1: Construct 1584: SFFV promoter-hIL-10; minTK-hIL-12 (opposite direction); native hIL-10 without a degron; SEQ ID NO: 186 (nucleic acid)
DNA: CCGATAAAATAAAAGATTTTATTTAGTCTCCAGAAAAAGGGGGGAATGAAAGACCCCACCTGTAGGTTTGGCAAGCTAGCTGCAGTAACGCCATTTTGCAAGGCATGGAAAAATACCAAACCAAGAATAGAGAAGTTCAGATCAAGGGCGGGTACATGAAAATAGCTAACGTTGGGCCAAACAGGATATCTGCGGTGAGCAGTTTCGGCCCCGGCCCGGGGCCAAGAACAGATGGTCACCGCAGTTTCGGCCCCGGCCCGAGGCCAAGAACAGATGGTCCCCAGATATGGCCCAACCCTCAGCAGTTTCTTAAGACCCATCAGATGTTTCCAGGCTCCCCCAAGGACCTGAAATGACCCTGCGCCTTATTTGAATTAACCAATCAGCCTGCTTCTCGCTTCTGTTCGCGCGCTTCTGCTTCCCGAGCTCTATAAAAGAGCTCACAACCCCTCACTCGGCGCGCCAGTCCTCCGACAGACTGAGTCGCCCGGGGGGGATCTGGAGCTCTCGAGAATTCATGCACTCATCTGCTCTCCTTTGCTGTCTCGTGCTCCTGACTGGAGTACGCGCGTCACCCGGTCAAGGGACACAAAGCGAAAACTCCTGTACGCATTTTCCGGGCAACCTCCCTAATATGCTTCGCGACTTGCGAGATGCATTTTCCAGGGTGAAGACCTTCTTCCAGATGAAGGACCAGTTGGATAATCTTCTCCTCAAGGAGTCTCTTTTGGAGGACTTCAAGGGCTACCTGGGATGTCAAGCCCTTAGCGAAATGATTCAGTTTTATCTTGAAGAGGTCATGCCGCAAGCTGAGAACCAGGACCCCGACATAAAAGCCCATGTGAACTCCCTCGGCGAGAATTTGAAGACGCTGAGACTTAGATTGAGAAGATGTCATAGATTTCTCCCATGTGAGAATAAGTCCAAGGCTGTCGAGCAGGTTAAGAATGCTTTCAATAAGTTGCAGGAAAAAGGAATCTATAAGGCAATGAGCGAGTTTGACATCTTTATTAACTACATTGAGGCTTATATGACTATGAAAATTAGAAACTAA
modifications: misc_feature 1..1054 Description of Artificial Sequence: Synthetic polynucleotide
With B1 the “% 1 uM Len of no drug (IL10/IL12 ratio)” value [2] was 131%, the “Mean IL10/IL12 ratio (1 uM Len)” value [2] was 4.09 and the “Mean IL10/IL12 ratio (no drug)” value [2] was 3.11. For the same molecule, the “hIL-10 secretion upon addition of lenalidomide” value ([2]; donor-derived T cells, 1 μM lenalidomide) was “did not result in reduced secretion”.

B2: Construct 1585: SFFV promoter-hIL-10-ADAM10/17 cleavage site-PDGFRb TM-A(EAAAK)3A-d913 degron; minTK-hIL-12 (opposite direction); SEQ ID NO: 187 (nucleic acid)
DNA: CCGATAAAATAAAAGATTTTATTTAGTCTCCAGAAAAAGGGGGGAATGAAAGACCCCACCTGTAGGTTTGGCAAGCTAGCTGCAGTAACGCCATTTTGCAAGGCATGGAAAAATACCAAACCAAGAATAGAGAAGTTCAGATCAAGGGCGGGTACATGAAAATAGCTAACGTTGGGCCAAACAGGATATCTGCGGTGAGCAGTTTCGGCCCCGGCCCGGGGCCAAGAACAGATGGTCACCGCAGTTTCGGCCCCGGCCCGAGGCCAAGAACAGATGGTCCCCAGATATGGCCCAACCCTCAGCAGTTTCTTAAGACCCATCAGATGTTTCCAGGCTCCCCCAAGGACCTGAAATGACCCTGCGCCTTATTTGAATTAACCAATCAGCCTGCTTCTCGCTTCTGTTCGCGCGCTTCTGCTTCCCGAGCTCTATAAAAGAGCTCACAACCCCTCACTCGGCGCGCCAGTCCTCCGACAGACTGAGTCGCCCGGGGGGGATCTGGAGCTCTCGAGAATTCATGCACTCATCTGCTCTCCTTTGCTGTCTCGTGCTCCTGACTGGAGTACGCGCGTCACCCGGTCAAGGGACACAAAGCGAAAACTCCTGTACGCATTTTCCGGGCAACCTCCCTAATATGCTTCGCGACTTGCGAGATGCATTTTCCAGGGTGAAGACCTTCTTCCAGATGAAGGACCAGTTGGATAATCTTCTCCTCAAGGAGTCTCTTTTGGAGGACTTCAAGGGCTACCTGGGATGTCAAGCCCTTAGCGAAATGATTCAGTTTTATCTTGAAGAGGTCATGCCGCAAGCTGAGAACCAGGACCCCGACATAAAAGCCCATGTGAACTCCCTCGGCGAGAATTTGAAGACGCTGAGACTTAGATTGAGAAGATGTCATAGATTTCTCCCATGTGAGAATAAGTCCAAGGCTGTCGAGCAGGTTAAGAATGCTTTCAATAAGTTGCAGGAAAAAGGAATCTATAAGGCAATGAGCGAGTTTGACATCTTTATTAACTACATTGAGGCTTATATGA
modifications: misc_feature 1..1034 Description of Artificial Sequence: Synthetic polynucleotide
B2 was tested, and the “% 1 uM Len of no drug (IL10/IL12 ratio)” value [2] was 56%, the “Mean IL10/IL12 ratio (1 uM Len)” value [2] was 1.65 and the “Mean IL10/IL12 ratio (no drug)” value [2] was 2.97.
